Test [1] relates to Jurkat T cells transfected with the candidate PSR. The test can be described thus: Binding and phagocytosis of symmetric red cell ghosts. The format is cell-based, human. The settings on record: for binding of symmetric red cell ghosts: FIG. 5; for binding and phagocytosis of symmetric red cell ghosts: stably transfected Jurkat T cells, FIG. 5 legend. The text has this:
A human EST clone (Accession No. R24727) containing the full length gene was obtained through the IMAGE Consortium via ATCC (Manassas, Va.). The insert was subcloned into pcDNA 3.1/neo at Hind III/Not I sites (Invitrogen, Carlsbad, Calif.). M12.C3 cells were transfected in OptiMEM I medium using Lipofectamine Plus (both from GibcoBRL Life Science Technologies, Grand Island, N.Y.). Jurkat T cells were transfected in OptiMEM I medium using DMRIE C Jurkat T cells were stimulated with PHA alone (1 μg/ml) or with PMA (1.6 nM) and PHA to induce expression of the receptor. After 48 hrs, the cells were analyzed for expression of the PS receptor using mAb 217 and flow cytometry. For stable transfections, Jurkat T cells were selected in G418 (1 mg/ml). Surface expression of the receptor was induced by treatment of the stably transfected cells with 160 nM PMA in the absence of G418 for 48 hours. The candidate PSR was also inserted into pRc/RSV (PharMingen, San Diego, Calif.), or pUP (provided by Brian Schaefer), and transfected into Jurkat T cells or M12.C3 cells by electroporation.
Human red blood cells were lysed in 1:50 PBS containing 1 mM CaCl2 on ice for one hour; they were resealed at 37° C. for 30 minutes by addition of 5×PBS. Exposure of phosphatidylserine was confirmed by binding of annexin-FITC, assessed by flow cytometry.

In another test the test system is HMDM. The test can be described thus: Uptake of apoptotic cells by HMDM. Type of test: cell-based, human. The settings on record: control agents. As for the experimental part: Human monocytes were obtained from normal donors, and cultured in X-Vivo 10 (BioWhitaker) containing 10% human serum. The differentiated macrophages (HMDM) were used at 7 days of culture. Mouse bone-marrow derived macrophages were derived by culturing bone marrow cells in M-CSF for 5-7 days.
Macrophages, fibroblasts, or epithelial cells were preincubated with 100 μM liposomes (containing 50:50 molar ratio of PS:PC or PI:PC), 1 mM RGDS or RGES, undiluted hybridoma supernatants containing mAb 217 or mAb 284 (for HMDM) or 100 μg/ml purified mAb 217, or 100 μg/ml isotype controls for 30 minutes prior to adding apoptotic Jurkat T cells at ratio of 5:1 target:phagocyte. Apoptosis was induced in Jurkat T cell by UV irradiation as described (Fadok et al., J Clin Invest 101:890-898 (1998)). THP-1 cells were stimulatedwith PMA (160 nM) for 72 hours to induce a macrophage phenotype, the ability to adhere, and the ability to take up apoptotic cells. After 1 hr, the phagocytes were washed and fixed for light microscopic evaluation of uptake. […] Aliquots were removed and assessed for binding and phagocytosis by light microscopy as described (Fadok et al., J Immunol 148:2207-2216 (1992); Fadok et al., J Immunol 149:4029-4035 (1992); Fadok et al., J Immunol 151:4274-4285 (1993); Fadok et al., J Immunol 161:6250-6257 (1998)). […]

3 compounds from patent US6630313B2, “Phosphatidyl serine receptors and uses thereof” (National Jewish Medical and Research Center, priority 2000, dated 2003) can be followed below.

Take `N[C@H](COP(=O)(O)O)C(=O)O` [phospho-D-serine]: in test [1], the “binding of symmetric red cell ghosts” value was “not”; the “binding and phagocytosis of symmetric red cell ghosts” value is on record as “not”.
With `N[C@@H](COP(=O)(O)O)C(=O)O` [phospho-L-serine], in test [1], the “binding of symmetric red cell ghosts” value is given as “inhibited”; the “binding and phagocytosis of symmetric red cell ghosts” value is recorded as “inhibited stereospecifically”.
As to RGES, the “effect on uptake of apoptotic cells by HMDM” value in the test with HMDM is “no effect”.
